Data from article PMC9181126, “Design, Synthesis, Molecular Docking Analysis and Biological Evaluations of 4-[(Quinolin-4-yl)amino]benzamide Derivatives as Novel Anti-Influenza Virus Agents” (International Journal of Molecular Sciences, 2022).

What was measured:
[1] = tested on: PA-PB1 endonuclease; assay: Experimental PA-PB1 inhibitory activity of literature inhibitors (training and test set); type: biochemical, influenza virus; details: class of the experimental IC50
[2] = tested on: PA-PB1 endonuclease; set-up: method as in supplement 1-7; details: training and test set compounds collected from literature; ref supplement 1-7; read-out: IC50 value Experimental (PA-PB1 endonuclease inhibitors); cited from earlier work
[3] = tested on: influenza virus A/WSN/33 (H1N1); assay: organism not typed; type: cell-based; details: MDCK, 72 h; for EC50: read-out: Cytopathic Effect Assay (A/WSN/33, H1N1) EC50; for inhibition at 12.5 µM / inhibition at 25 µM / inhibition at 50 µM / inhibition at 100 µM: H1N1|WSN, read-out: Antiviral activity in CPE assay
[4] = biological target: ribonucleoprotein (RNP) of influenza virus (Influenza A virus, UniProt P15659); assay: cell-based; details: HEK-293T; concentration 100 µM; read-out: RNP Reconstitution Assay Inhibition Rate
[5] = tested on: influenza virus A/WSN/33 (H1N1); assay: Plaque inhibition assay in MDCK cells; type: cell-based; details: for inhibition at 100 µM: MDCK, concentration 100 µM, read-out: Plaque Inhibition Assay (A/WSN/33, H1N1) Inhibition Rate
[6] = tested on: HEK293T cells; assay: in vitro; type: cell-based; details: human, 72 h
Procedure: (§1) The 3-(4,5-dimethylthiazol-2-yl)-2,5-diphenyltetrazolium bromide (MTT) method was performed to assess the cytotoxicity of target compounds in MDCK cells and HEK293T cells. Firstly, MDCK cells or HEK293T cells were seeded into the 96-well plate. Then, the media containing test compounds replaced the growth media after 48 h. Incubate MDCK cells or HEK293T cells with test compounds for 72 h at 37 °C in a humidified 5% CO2 incubator. Later, MTT solution (5 mg/mL in PBS) was added into each well and plates were incubated for 4 h at 37 °C. Then, add a solubilization solution to lyse cells. Finally, absorbance was read at 620 nm using an ELISA plate reader (Tecan Sunrise) after 3 h of further incubation at 37 °C. We set the values obtained from the wells treated with only DMSO as 100% of viable cells.

[7] = in vitro; type: cell-based; details: human
Procedure: as §1

[8] = tested on: MDCK cells; assay: in vitro; type: cell-based, canine; details: dog, 72 h
Procedure: as §1

[9] = in vitro; type: cell-based, canine; details: dog
Procedure: as §1

CCCOc1ccc(C(=O)Nc2nc3n(n2)C(c2ccccc2)C=C(C)N3)cc1 (stereo not drawn) [Compound H21]
Activity scale Experimental [1]: +++ (+++, IC50 10 to 100 μM (active)) | IC50 [2]: 40 µM

CCOC(=O)c1ccc(NC(=O)CSc2nc(-c3ccccc3)cc(-c3ccc(OCc4ccccc4)c(OCC)c3)c2C#N)cc1 [Compound H30]
Activity scale Experimental [1]: +++ (+++, IC50 10 to 100 μM (active)) | IC50 [2]: 30 µM

Cc1onc(-c2ccccc2)c1C(=O)N1CCN(c2ccc([N+](=O)[O-])cc2Cl)CC1 [nucleozin, reference compound]
EC50 [3]: 0.21 ± 0.15 µM | inhibition at 100 µM [4]: 92.9% | IC50 ([5]; MDCK cells): 0.15 ± 0.11 µM | inhibition at 100 µM [5]: 99.5%

CC1=CC(c2ccccc2)n2nc(NC(=O)c3ccc(OC(C)C)cc3)nc2N1 (stereo not drawn) [Compound H22]
Activity scale Experimental [1]: +++ (+++, IC50 10 to 100 μM (active)) | IC50 [2]: 75 µM

Cc1cc(-c2ccccc2)n2nc(C(=O)Nc3ccccc3C(N)=O)nc2n1 [Compound H05]
Activity scale Experimental [1]: +++ (+++, IC50 10 to 100 μM (active)) | IC50 [2]: 11 µM

COc1ccccc1C(=O)Nc1sc2c(c1C(=O)Nc1ccc(Cl)cc1)CCCCC2 [Compound H34]
Activity scale Experimental [1]: +++ (+++, IC50 10 to 100 μM (active)) | IC50 [2]: 78 µM

COc1ccccc1C(=O)Nc1sc2c(c1C(=O)Nc1ccccn1)CCCCC2 [Compound H11]
Activity scale Experimental [1]: +++ (+++, IC50 10 to 100 μM (active)) | IC50 [2]: 22 µM

Cc1cc(-c2ccccc2)nc2nc(NC(=O)c3ccccc3)nn12 [Compound H20]
Activity scale Experimental [1]: +++ (+++, IC50 10 to 100 μM (active)) | IC50 [2]: 26 µM

Cc1cc(-c2ccccc2)n2nc(C(=O)Nc3sc4c(c3C(=O)O)CCCCC4)nc2n1 [Compound H08]
Activity scale Experimental [1]: +++ (+++, IC50 10 to 100 μM (active)) | IC50 [2]: 19 µM

CCCCOc1ccc(C(=O)Nc2nc3n(n2)C(c2ccccc2)C=C(C)N3)cc1 (stereo not drawn) [Compound H18]
Activity scale Experimental [1]: +++ (+++, IC50 10 to 100 μM (active)) | IC50 [2]: 37 µM

NC(=O)c1c(NC(=O)c2cnn3c(C(F)F)cc(-c4ccccc4)nc23)sc2c1CCC2 [Compound H16]
Activity scale Experimental [1]: +++ (+++, IC50 10 to 100 μM (active)) | IC50 [2]: 25.4 µM

Cc1ccc(-c2cc(-c3ccccc3)nc(SC(C)C(=O)Nc3ccc(C)c(C)c3)c2C#N)cc1 (stereo not drawn) [Compound H38]
Activity scale Experimental [1]: + (+, IC50 >150 μM (inactive)) | IC50 [2]: 180 µM

CC1=CC(c2ccccc2)n2nc(NC(=O)c3ccccc3F)nc2N1 (stereo not drawn) [Compound H25]
Activity scale Experimental [1]: + (+, IC50 >150 μM (inactive)) | IC50 [2]: 185 µM

Cc1cc(-c2ccccc2)n2nc(C(=O)Nc3nc4ccccc4s3)nc2n1 [Compound H09]
Activity scale Experimental [1]: +++ (+++, IC50 10 to 100 μM (active)) | IC50 [2]: 21 µM

Cc1ccc(-c2cc(-c3ccccc3)nc(SCC(=O)Nc3cccc(Cl)c3)c2C#N)cc1 [Compound H35]
Activity scale Experimental [1]: + (+, IC50 >150 μM (inactive)) | IC50 [2]: 180 µM

CC(c1ccccc1)n1nnnc1C(c1ccsc1)N1CCC(n2c(=O)[nH]c3ccccc32)CC1 (stereo not drawn) [Compound H28]
Activity scale Experimental [1]: ++++ (++++, IC50 ≤ 10 μM (most active)) | IC50 [2]: 7.6 µM

O=C(Nc1sc2c(c1C(=O)Nc1ccccn1)CCCCC2)c1ccc(O)cc1 [Compound H13]
Activity scale Experimental [1]: +++ (+++, IC50 10 to 100 μM (active)) | IC50 [2]: 26 µM

CCOc1ccc(C(=O)Nc2nc3n(n2)C(c2ccccc2)C=C(C)N3)cc1 (stereo not drawn) [Compound H23]
Activity scale Experimental [1]: ++ (++, IC50 100 to 150 μM (moderately active)) | IC50 [2]: 139 µM

O=C(Nc1sc2c(c1C(=O)Nc1nccs1)CCCCC2)c1ccccc1O [Compound H33]
Activity scale Experimental [1]: +++ (+++, IC50 10 to 100 μM (active)) | IC50 [2]: 69 µM

CC1=CC(c2ccccc2)n2nc(NC(=O)c3ccc(F)cc3)nc2N1 (stereo not drawn) [Compound H27]
Activity scale Experimental [1]: ++ (++, IC50 100 to 150 μM (moderately active)) | IC50 [2]: 138 µM

O=C(Nc1sc2c(c1C(=O)Nc1ccc(Cl)cc1)CCCCC2)c1ccccc1O [Compound H12]
Activity scale Experimental [1]: +++ (+++, IC50 10 to 100 μM (active)) | IC50 [2]: 18 µM

Cc1cc(-c2ccccc2)n2nc(C(=O)Nc3sc4c(c3C(=O)Nc3ccccn3)CCCCC4)nc2n1 [Compound H06]
Activity scale Experimental [1]: +++ (+++, IC50 10 to 100 μM (active)) | IC50 [2]: 23 µM

Cc1cc(-c2ccccc2)nc2c(C(=O)Nc3sc4c(c3C(N)=O)CCC4)cnn12 [Compound H15]
Activity scale Experimental [1]: +++ (+++, IC50 10 to 100 μM (active)) | IC50 [2]: 44.8 µM

Cc1ccc(-c2cc(-c3ccccc3)nc(SC(C)C(=O)Nc3cccc(Cl)c3)c2C#N)cc1 (stereo not drawn) [Compound H36]
Activity scale Experimental [1]: ++ (++, IC50 100 to 150 μM (moderately active)) | IC50 [2]: 125 µM

CC1=CC(c2ccccc2)n2nc(NC(=O)c3cccc(F)c3)nc2N1 (stereo not drawn) [Compound H26]
Activity scale Experimental [1]: + (+, IC50 >150 μM (inactive)) | IC50 [2]: 156 µM

CCCNC(=O)c1ccc(Nc2ccnc3cc(C(F)(F)F)ccc23)cc1 [Compound G03, N-Propyl-4-{[7-(trifluoromethyl)quinolin-4-yl]amino}benzamide]
HEK293T cells survival rate ([6]; 3.125 µmol·L−1): 98.97±9.80% | HEK293T cells survival rate ([6]; 6.25 µmol·L−1): 89.61±8.87% | HEK293T cells survival rate ([6]; 12.5 µmol·L−1): 97.78±4.47% | HEK293T cells survival rate ([6]; 25 µmol·L−1): 91.10±7.09% | HEK293T cells survival rate ([6]; 50 µmol·L−1): 84.12±2.84% | HEK293T cells survival rate ([6]; 100 µmol·L−1): 74.22±4.02% | CC50 at 72 h [7]: > 100 µM | melting point: 242.5 to 243.4 °C | MDCK cells survival rate ([8]; 12.5 µmol·L−1): 107.23±8.32% | MDCK cells survival rate ([8]; 25 µmol·L−1): 128.70±3.04% | MDCK cells survival rate ([8]; 50 µmol·L−1): 132.67±1.65% | MDCK cells survival rate ([8]; 100 µmol·L−1): 144.22±4.46% | CC50 at 72 h [9]: > 100 µM | inhibition at 12.5 µM [3]: 54.9 ± 4.62% | inhibition at 25 µM [3]: 56.7 ± 11.7% | inhibition at 50 µM [3]: 70.3 ± 9.33% | inhibition at 100 µM [3]: 78.7 ± 8.35% | EC50 [3]: 10 ± 1.9 µM | inhibition at 100 µM [5]: < 10%

NC(=O)c1c(NC(=O)c2cnn3c(C(F)F)cc(-c4ccccc4)nc23)sc2c1CCC2 [Compound H32]
Activity scale Experimental [1]: +++ (+++, IC50 10 to 100 μM (active)) | IC50 [2]: 25.4 µM

COc1ccccc1OCCNC(=O)c1ccc(Nc2ccnc3cc(C)ccc23)cc1 [Compound G21, N-[2-(2-Methoxyphenoxy)ethyl]-4-[(7-methylquinolin-4-yl)amino]benzamide]
HEK293T cells survival rate ([6]; 3.125 µmol·L−1): 117.39±1.03% | HEK293T cells survival rate ([6]; 6.25 µmol·L−1): 103.95±2.65% | HEK293T cells survival rate ([6]; 12.5 µmol·L−1): 105.56±6.72% | HEK293T cells survival rate ([6]; 25 µmol·L−1): 102.64±2.91% | HEK293T cells survival rate ([6]; 50 µmol·L−1): 110.67±8.55% | HEK293T cells survival rate ([6]; 100 µmol·L−1): 50.09±0.70% | CC50 at 72 h [7]: > 100 µM | melting point: 209.6 to 210.6 °C | MDCK cells survival rate ([8]; 12.5 µmol·L−1): 83.41±3.67% | MDCK cells survival rate ([8]; 25 µmol·L−1): 80.18±7.27% | MDCK cells survival rate ([8]; 50 µmol·L−1): 93.28±9.93% | MDCK cells survival rate ([8]; 100 µmol·L−1): 88.84±3.59% | CC50 at 72 h [9]: > 100 µM | inhibition at 12.5 µM [3]: 43 ± 7.31% | inhibition at 25 µM [3]: 39.8 ± 7.16% | inhibition at 50 µM [3]: 39.8 ± 6.58% | inhibition at 100 µM [3]: 50.1 ± 5.45% | EC50 [3]: > 100 µM | inhibition at 100 µM [5]: 11.5%

O=C(NCc1ccccc1)c1ccc(Nc2ccnc3cc(C(F)(F)F)ccc23)cc1 [Compound G11, N-Benzyl-4-{[7-(trifluoromethyl)quinolin-4-yl]amino}benzamide]
HEK293T cells survival rate ([6]; 3.125 µmol·L−1): 129.49±22.76% | HEK293T cells survival rate ([6]; 6.25 µmol·L−1): 101.78±7.08% | HEK293T cells survival rate ([6]; 12.5 µmol·L−1): 105.25±12.82% | HEK293T cells survival rate ([6]; 25 µmol·L−1): 108.76±5.63% | HEK293T cells survival rate ([6]; 50 µmol·L−1): 103.77±9.35% | HEK293T cells survival rate ([6]; 100 µmol·L−1): 86.44±8.60% | CC50 at 72 h [7]: > 100 µM | melting point: 263.4 to 265.8 °C | MDCK cells survival rate ([8]; 12.5 µmol·L−1): 148.07±0.17% | MDCK cells survival rate ([8]; 25 µmol·L−1): 123.28±5.69% | MDCK cells survival rate ([8]; 50 µmol·L−1): 127.54±0.33% | MDCK cells survival rate ([8]; 100 µmol·L−1): 137.86±9.32% | CC50 at 72 h [9]: > 100 µM | inhibition at 12.5 µM [3]: 47.7 ± 9.63% | inhibition at 25 µM [3]: 52.4 ± 3.44% | inhibition at 50 µM [3]: 44.1 ± 1.38% | inhibition at 100 µM [3]: 47.3 ± 0.92% | EC50 [3]: 7.17 ± 1.53 µM | inhibition at 100 µM [5]: 50%
